Data published in ChEMBL document CHEMBL1201862, “PubChem BioAssay data set” (2004).
Active and inactive are the calls of the source.

Tests used:
[1] = Luminescence Cell-Based Dose Confirmation HTS to Identify Activators of 5'UTR Stem-Loop Driven Alpha-Synuclein mRNA Translation in H4 Neuroglioblastoma Cells. [Related pubchem assays: 1829 (Project Summary), 1814 (Primary HTS)]; type: functional
[2] = Luminescence Cell-Based Dose Response HTS to Identify Activators of Luciferase Translation or Activity in H4 […] Cells. [Related pubchem assays: 1829 (Project Summary), 1814 (Primary HTS)]; type: functional
H4 = test: Luminescence Cell-Based Dose Response HTS to Identify Activators of 5'UTR Stem-Loop Driven Prion Protein mRNA Translation in H4 Neuroglioblastoma Cells. [Related pubchem assays: 1829 (Project Summary), 1814 (Primary HTS)]; type: functional; conditions: Homo sapiens
Vero [3] = test: host cell cytotoxicity of antiviral hits, dose response, cytotoxicity control for West Nile virus antiviral project, secondary assay (AID 1650); type: functional; conditions: Chlorocebus sabaeus
Vero [4] = test: West Nile virus antiviral activity, cell-based, CPE readout (AID 1621); type: functional; conditions: Chlorocebus sabaeus
[5] = Luminescence Cell-Based Dose Retest to Confirm Inhibitors of Cancer Stem Cells. [Related pubchem assays (depositor defined):AID2717, AID2721]; type: functional; conditions: Homo sapiens
[6] = target: T1, Microphthalmia-associated transcription factor (Homo sapiens, UniProt O75030); test: TRPM1 promoter luciferase signal decrease, dose response, MITF inhibitor project, cell-based, SK-MEL-5, cherry-picked, set 3 (AID 493073); type: functional
T1 sequence (O75030 whole entry): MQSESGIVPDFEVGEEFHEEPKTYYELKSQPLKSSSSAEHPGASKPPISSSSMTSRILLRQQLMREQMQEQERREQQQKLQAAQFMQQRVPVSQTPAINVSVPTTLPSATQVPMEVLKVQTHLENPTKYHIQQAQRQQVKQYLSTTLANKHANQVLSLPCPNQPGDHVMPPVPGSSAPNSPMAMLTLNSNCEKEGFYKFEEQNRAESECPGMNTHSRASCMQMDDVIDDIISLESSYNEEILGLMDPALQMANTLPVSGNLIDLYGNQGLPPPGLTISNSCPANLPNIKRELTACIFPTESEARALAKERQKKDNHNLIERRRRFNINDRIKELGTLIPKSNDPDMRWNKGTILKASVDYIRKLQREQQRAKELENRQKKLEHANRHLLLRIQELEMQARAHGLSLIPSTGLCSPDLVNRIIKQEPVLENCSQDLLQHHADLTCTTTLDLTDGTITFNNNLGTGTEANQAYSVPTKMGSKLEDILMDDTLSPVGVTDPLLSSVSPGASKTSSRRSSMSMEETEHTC

[7] = target: T2, Aryl hydrocarbon receptor (Homo sapiens, UniProt P35869); test: Luminescence-based cell-based high throughput dose response assay for activators of the Aryl Hydrocarbon Receptor (AHR). [Related pubchem assays: 2796 (Primary screen (AHR activators in singlicate)), 2845 (Confirmation screen (AHR activators in triplicate)), 434939 (Counterscreen (PXR activators in triplicate)), 2804 (Summary (AHR activators))]; type: ADME
T2 sequence (P35869 whole entry): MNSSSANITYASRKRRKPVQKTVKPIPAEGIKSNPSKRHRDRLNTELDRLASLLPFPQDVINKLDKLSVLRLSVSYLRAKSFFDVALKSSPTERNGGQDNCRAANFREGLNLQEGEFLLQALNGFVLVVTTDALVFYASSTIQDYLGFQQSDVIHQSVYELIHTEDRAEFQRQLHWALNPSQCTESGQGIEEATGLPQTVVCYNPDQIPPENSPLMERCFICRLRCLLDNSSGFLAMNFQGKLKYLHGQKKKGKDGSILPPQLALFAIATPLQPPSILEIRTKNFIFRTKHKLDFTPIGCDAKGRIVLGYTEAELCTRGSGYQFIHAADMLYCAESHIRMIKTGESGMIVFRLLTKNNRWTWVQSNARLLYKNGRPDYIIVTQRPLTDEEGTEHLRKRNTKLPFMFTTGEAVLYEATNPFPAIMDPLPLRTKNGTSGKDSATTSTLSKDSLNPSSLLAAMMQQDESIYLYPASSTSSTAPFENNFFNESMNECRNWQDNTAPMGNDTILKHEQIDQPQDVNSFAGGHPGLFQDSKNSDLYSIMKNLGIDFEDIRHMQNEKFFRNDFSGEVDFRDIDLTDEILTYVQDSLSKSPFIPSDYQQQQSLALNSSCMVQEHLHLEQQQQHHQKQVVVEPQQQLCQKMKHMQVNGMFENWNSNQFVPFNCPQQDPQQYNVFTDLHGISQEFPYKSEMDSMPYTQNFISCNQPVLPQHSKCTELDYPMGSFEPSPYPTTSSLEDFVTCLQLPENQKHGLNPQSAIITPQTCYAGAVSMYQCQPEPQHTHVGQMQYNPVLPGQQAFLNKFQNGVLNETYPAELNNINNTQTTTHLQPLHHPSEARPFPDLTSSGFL

[8] = target: FAD-linked sulfhydryl oxidase ALR (Homo sapiens, UniProt P55789); test: inhibitors of human ALR sulfhydryl oxidase, dose response, biochemical, H2O2 detection, luminescence, cherry-pick (AID 493248)
Prothrombin = Prothrombin (Homo sapiens, UniProt P00734); test: Thrombin 1536 HTS Dose Response Confirmation. [Related pubchem assays: 1046 (Thrombin 1536 HTS; hits were confirmed in this assay)]; type: functional
Aspartyl aminopeptidase = target: T3, Aspartyl aminopeptidase (Plasmodium falciparum 3D7, UniProt Q8I2J3); test: Counterscreen for inhibitors of M1 and M17 aminopeptidases: QFRET-based biochemical high throughput dose response assay for inhibitors of the Plasmodium falciparum M18 Aspartyl Aminopeptidase (PFM18AAP). [Related PubChem assays: 1619 (Screening assay (M17LAP inhibitors).), 1445 (Screening assay (M1AAP inhibitors).)]
T3 sequence (Q8I2J3 whole entry): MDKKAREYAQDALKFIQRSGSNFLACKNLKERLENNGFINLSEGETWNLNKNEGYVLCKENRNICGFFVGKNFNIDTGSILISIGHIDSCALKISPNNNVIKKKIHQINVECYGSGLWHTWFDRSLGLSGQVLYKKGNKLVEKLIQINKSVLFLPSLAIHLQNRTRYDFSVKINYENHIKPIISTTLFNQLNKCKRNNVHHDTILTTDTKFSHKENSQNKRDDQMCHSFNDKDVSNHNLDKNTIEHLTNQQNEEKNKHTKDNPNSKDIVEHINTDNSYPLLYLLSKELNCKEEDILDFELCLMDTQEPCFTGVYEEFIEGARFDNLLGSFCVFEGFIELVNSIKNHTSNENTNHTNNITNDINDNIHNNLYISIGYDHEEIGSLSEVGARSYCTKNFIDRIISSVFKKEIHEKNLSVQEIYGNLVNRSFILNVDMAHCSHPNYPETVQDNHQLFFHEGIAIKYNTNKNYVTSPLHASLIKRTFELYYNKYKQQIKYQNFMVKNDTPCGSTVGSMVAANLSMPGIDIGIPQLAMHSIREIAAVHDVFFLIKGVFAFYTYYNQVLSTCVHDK

Aminopeptidase N = target: T4, Aminopeptidase N (Plasmodium falciparum FcB1/Columbia, UniProt O96935); test: P. falciparum M1AAP inhibitors, biochemical, fluorogenic H-Leu-NHMec substrate, 1536-well (AID 1445); set-up: species or system Plasmodium falciparum 3D7, 3D7
T4 sequence (O96935 whole entry): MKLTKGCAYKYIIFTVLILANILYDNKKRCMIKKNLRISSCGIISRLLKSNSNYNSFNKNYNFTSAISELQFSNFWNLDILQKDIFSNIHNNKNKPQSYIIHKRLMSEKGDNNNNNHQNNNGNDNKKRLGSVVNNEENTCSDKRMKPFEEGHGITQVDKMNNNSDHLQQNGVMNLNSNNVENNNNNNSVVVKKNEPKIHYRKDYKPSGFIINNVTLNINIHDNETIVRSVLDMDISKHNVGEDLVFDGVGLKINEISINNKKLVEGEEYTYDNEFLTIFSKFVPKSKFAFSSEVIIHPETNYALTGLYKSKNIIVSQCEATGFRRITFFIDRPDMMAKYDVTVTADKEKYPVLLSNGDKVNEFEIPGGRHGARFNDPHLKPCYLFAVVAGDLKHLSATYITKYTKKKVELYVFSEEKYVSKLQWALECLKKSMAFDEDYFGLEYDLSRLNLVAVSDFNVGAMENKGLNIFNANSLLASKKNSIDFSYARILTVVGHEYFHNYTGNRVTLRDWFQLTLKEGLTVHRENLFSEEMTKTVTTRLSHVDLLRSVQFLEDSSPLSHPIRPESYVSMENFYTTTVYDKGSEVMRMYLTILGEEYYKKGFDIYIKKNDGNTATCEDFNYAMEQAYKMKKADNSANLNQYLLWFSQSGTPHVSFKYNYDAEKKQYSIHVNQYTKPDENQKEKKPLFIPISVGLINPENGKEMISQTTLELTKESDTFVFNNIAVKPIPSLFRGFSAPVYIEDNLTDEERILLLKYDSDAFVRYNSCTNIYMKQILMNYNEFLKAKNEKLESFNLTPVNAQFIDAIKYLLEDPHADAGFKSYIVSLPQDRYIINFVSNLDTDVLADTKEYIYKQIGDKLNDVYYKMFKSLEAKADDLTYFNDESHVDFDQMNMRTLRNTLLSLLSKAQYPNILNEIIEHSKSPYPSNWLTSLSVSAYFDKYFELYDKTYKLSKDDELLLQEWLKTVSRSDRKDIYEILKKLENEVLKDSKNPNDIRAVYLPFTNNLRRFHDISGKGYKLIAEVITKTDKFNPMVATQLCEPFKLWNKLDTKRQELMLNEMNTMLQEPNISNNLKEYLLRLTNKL

Procathepsin L = Procathepsin L (Homo sapiens, UniProt P07711); test: cathepsin L inhibitors, dose response, counter-screen for M1/M17 aminopeptidase inhibitor project, biochemical, QFRET, 1536-well (AID 2214)
Bcl-2-related protein A1 = target: T5, Bcl-2-related protein A1 (Mus musculus, UniProt Q07440); type: functional;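 further: confirmatory dose–response counterscreen on Bfl-1, used to check hits from a UBC13 polyubiquitin inhibitor campaign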
T5 sequence (Q07440 whole entry): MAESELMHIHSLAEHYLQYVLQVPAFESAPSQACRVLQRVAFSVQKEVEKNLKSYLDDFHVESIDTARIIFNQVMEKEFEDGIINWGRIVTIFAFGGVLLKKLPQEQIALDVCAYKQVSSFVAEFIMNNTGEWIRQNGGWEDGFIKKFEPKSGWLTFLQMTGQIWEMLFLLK

[9] = target: T6, Ubiquitin-conjugating enzyme E2 N (Homo sapiens, UniProt P61088); type: functional
T6 sequence (P61088 whole entry): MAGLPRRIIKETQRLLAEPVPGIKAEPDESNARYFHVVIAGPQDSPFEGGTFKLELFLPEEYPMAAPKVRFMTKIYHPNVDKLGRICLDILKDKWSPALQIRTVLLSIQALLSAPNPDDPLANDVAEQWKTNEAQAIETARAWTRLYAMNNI

[10] = target: T6, Ubiquitin-conjugating enzyme E2 N; type: functional; remark: listed apart in the source
[11] = inhibitors of firefly luciferase expression or activity, dose response, H4 neuroglioma cells, luminescence (AID 1990); type: functional, cell-based
[12] = Luminescence Cell-Based Dose Response HTS to Identify Inhibitors of 5'UTR Stem-Loop Driven Prion Protein mRNA Translation in H4 Neuroglioblastoma Cells. [Related pubchem assays: 1827 (Project Summary), 1813 (Primary HTS)]; type: functional
[13] = inhibitors of SNCA 5'UTR-driven reporter translation, confirmation, H4 neuroglioma cells, luminescence (AID 1988); type: functional, cell-based
Vero [14] = test: cells; type: functional; conditions: Chlorocebus sabaeus

FAD-linked sulfhydryl oxidase ALR, sequence (P55789 whole entry): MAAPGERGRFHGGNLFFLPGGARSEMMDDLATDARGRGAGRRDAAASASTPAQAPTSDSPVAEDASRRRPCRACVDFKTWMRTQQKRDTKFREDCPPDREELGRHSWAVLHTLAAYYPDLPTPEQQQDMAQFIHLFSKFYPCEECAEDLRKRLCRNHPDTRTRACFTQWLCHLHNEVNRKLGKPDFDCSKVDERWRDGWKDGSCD
Procathepsin L, sequence (P07711 whole entry): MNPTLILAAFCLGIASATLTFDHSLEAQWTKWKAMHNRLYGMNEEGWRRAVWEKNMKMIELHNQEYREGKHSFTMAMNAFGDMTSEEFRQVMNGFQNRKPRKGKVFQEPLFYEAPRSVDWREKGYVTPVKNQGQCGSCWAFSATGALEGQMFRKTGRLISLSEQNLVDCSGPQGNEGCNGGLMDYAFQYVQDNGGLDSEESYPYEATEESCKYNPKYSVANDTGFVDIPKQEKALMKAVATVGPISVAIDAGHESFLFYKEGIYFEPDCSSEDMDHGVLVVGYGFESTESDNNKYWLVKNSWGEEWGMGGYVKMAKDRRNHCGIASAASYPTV

C=C1C(=O)C=C[C@]2(C)C[C@@H]3OC(=O)[C@](C)(O)[C@H]3C[C@@H]12
EC50 [1]: 0.106 µM (active) | EC50 [2]: 0.153 µM (active) | EC50 (H4): 0.887 µM (active) | CC50 (Vero [3]): 10.8 µM (active) | IC50 (Vero [4]): 24.7 µM (active) | AC50 [5]: 4.35 µM (active) | AC50 [6]: 10.3 µM (active)

COc1ccccc1C(=O)Nc1ccc(N2CCCCC2)cc1
EC50 [7]: 2.91 µM (active) | AC50 [8]: 13.4 µM (active)

Clc1ccc2oc(-c3ccccc3)cc(=NCCCN3CCOCC3)c2c1
IC50 (Prothrombin): 24.2 µM (active)

CC(=O)N1NC(=C2C(=O)N(C)C(=O)N(C)C2=O)CC1c1ccccc1 (configuration not stated)
IC50 (Aspartyl aminopeptidase): > 73.5 µM (not active) | IC50 (Aminopeptidase N): 16 µM (active) | IC50 (Procathepsin L): > 59.6 µM (not active) | IC50 (Bcl-2-related protein A1): > 20 µM (inactive) | IC50 [9]: 12.5 µM (active) | IC50 [10]: 19.5 µM (active)

COc1ccc(C2c3ccc4ccccc4c3Oc3ncn(CCN4CCOCC4)c(=N)c32)cc1OC (configuration not stated)
EC50 [11]: > 120 µM (not active) | EC50 [12]: 33.4 µM (active) | CC50 (Vero [3]): > 100 µM (active) | EC50 [13]: 9.75 µM (active) | IC50 (Vero [4]): 31.4 µM (active) | CC50 (Vero [14]): 23.8 µM (active)
